Results reported in ChEMBL document CHEMBL1129412, “Computation of brain-blood partitioning of organic solutes via free energy calculations” (J Med Chem, 1996).

Tests used:
[1] = logBB, log(C brain / C blood)
[2] = logBB, log(C brain/C blood)
[3] = The ratio of brain-blood partitioning, (C brain / C blood).; format: ADME, tissue-based

SMILES: FC(F)OC(F)(F)C(F)Cl (stereo not drawn)
- Kp ([1]; blood): 1.74

SMILES: O=C(NCCCOc1cccc(CN2CCCCC2)c1)c1ccccc1
- Kp ([2]; blood): 0.575

SMILES: Cc1csc(N=C(N)N)n1
- Kp ([2]; blood): 0.912

SMILES: CN(C)Cc1ccc(CSCCNc2ncc(Cc3ccc4ccccc4c3)c(O)n2)o1
- Kp ([2]; brain / blood): 0.0501

SMILES: c1ccc(NCCCOc2cccc(CN3CCCCC3)c2)nc1
- Kp ([2]; blood): 4.9

SMILES: O=[N+]([O-])c1c(Cc2ccccc2)c[nH]c1NCCSCc1ccccn1
- Kp ([2]; brain / blood): 0.759

SMILES: FC(F)(F)CCl
- Kp ([1]; brain / blood): 1.2

SMILES: CCC(C)(C)C
- Kp ([1]; brain / blood): 11

SMILES: CN(C)Cc1ccnc(-c2cccc(Nc3[nH]ccc3[N+](=O)[O-])c2)c1
- Kp ([2]; blood): 0.525

SMILES: FC(Br)C(F)(F)F (stereo not drawn)
- Kp ([1]; blood): 1.86

SMILES: c1cc(CN2CCCCC2)cc(OCCCNc2nccs2)c1
- Kp ([2]; blood): 2.75

SMILES: CN1Cc2c(-c3noc(C(C)(O)CO)n3)ncn2-c2cccc(Cl)c2C1=O (stereo not drawn)
- Kp ([1]; blood): 0.0151
- Kp [3]: 0.015

SMILES: CN1Cc2c(-c3noc(C(C)(C)O)n3)ncn2-c2cccc(Cl)c2C1=O
- Kp ([1]; brain / blood): 0.0457
- Kp [3]: 0.046

SMILES: CC(=O)NCCCOc1cccc(CN2CCCCC2)c1
- Kp ([2]; blood): 0.347

SMILES: CC(=O)Nc1cccc(-c2csc(N=C(N)N)n2)c1
- Kp ([2]; blood): 0.0269

SMILES: NC(N)=Nc1nc(-c2ccccc2)cs1
- Kp ([2]; brain / blood): 0.661

SMILES: O=[N+]([O-])c1cc[nH]c1NCCSCc1ncccc1Br
- Kp ([2]; brain / blood): 0.214

SMILES: CC(C)c1nc(-c2ncn3c2CN(C)C(=O)c2c(Cl)cccc2-3)no1
- Kp ([1]; brain / blood): 0.501
- Kp [3]: 0.5

SMILES: CCCC(C)C
- Kp ([1]; brain / blood): 9.33

SMILES: CCCC(C)CC (stereo not drawn)
- Kp ([1]; blood): 7.94

SMILES: CN(C)Cc1ccc(CSCCNc2[nH]ccc2[N+](=O)[O-])o1
- Kp ([2]; brain / blood): 0.0759

SMILES: CN(C)Cc1ccc(CSCCNc2[nH]cc(Cc3ccccc3)c2[N+](=O)[O-])o1
- Kp ([2]; blood): 0.186

SMILES: CC/N=C(\NC#N)NCCSCc1ncccc1Br
- Kp ([2]; blood): 0.00708

SMILES: CCC(C)CC
- Kp ([1]; blood): 10.2

SMILES: CN(C)Cc1ccc(-c2cccc(Nc3[nH]ccc3[N+](=O)[O-])c2)o1
- Kp ([1]; brain / blood): 0.537

SMILES: N=C(N)Nc1nc(-c2cccc(N)c2)cs1
- Kp ([2]; brain / blood): 0.0708

SMILES: CN(C)c1cc(-c2n[nH]c(N)n2)ccn1
- Kp ([2]; brain / blood): 0.0676

SMILES: C/N=C(\NC#N)Nc1cccc(-c2csc(N=C(N)N)n2)c1
- Kp ([2]; brain / blood): 0.0288

SMILES: CCO [ALCOHOL]
- Kp ([1]; blood): 0.692

SMILES: CN(C)CCC=C1c2ccccc2CCc2ccccc21 [AMITRIPTYLINE]
- Kp [3]: 9.6

SMILES: c1ccccc1 [BENZENE]
- Kp ([1]; blood): 2.34

SMILES: CCC(C)=O [BUTANONE]
- Kp ([1]; blood): 0.832

SMILES: NC(=O)N1c2ccccc2C2OC2c2ccccc21 (stereo not drawn) [CARBAMAZEPINE EPOXIDE]
- Kp ([1]; brain / blood): 0.457
- Kp [3]: 0.46

SMILES: NC(=O)N1c2ccccc2C=Cc2ccccc21 [CARBAMAZEPINE]
- Kp ([1]; blood): 1
- Kp [3]: 1

SMILES: CN/C(=N/CCSCc1nc[nH]c1C)NC#N [CIMETIDINE]
- Kp ([2]; blood): 0.038

SMILES: C=COCC(F)(F)F [FLUROXENE]
- Kp ([1]; blood): 1.35

SMILES: FC(F)(F)C(Cl)Br (stereo not drawn) [HALOTHANE]
- Kp ([1]; blood): 2.24

SMILES: CCCCCCC [HEPTANE]
- Kp ([1]; blood): 6.46

SMILES: CCCCCC [HEXANE]
- Kp ([1]; blood): 6.31

SMILES: COc1cccnc1CCCCNc1ncc(Cc2ccc(C)nc2)c(=O)[nH]1 [ICOTIDINE]
- Kp ([2]; blood): 0.01

SMILES: CN(C)CCCN1c2ccccc2CCc2ccccc21 [IMIPRAMINE]
- Kp ([2]; blood): 6.76

SMILES: CC(C)CO [ISOBUTANOL]
- Kp ([1]; brain / blood): 0.676

SMILES: FC(F)OC(Cl)C(F)(F)F (stereo not drawn) [ISOFLURANE]
- Kp ([1]; blood): 2.63

SMILES: CC(C)O [ISOPROPYL ALCOHOL]
- Kp ([1]; blood): 0.708

SMILES: Cc1ccc(Cc2c[nH]c(NCCSCc3ccc(CN(C)C)o3)nc2=O)cn1 [LUPITIDINE]
- Kp ([2]; brain / blood): 0.0871

SMILES: C [METHANE]
- Kp ([1]; brain / blood): 1.1

SMILES: CC1CCCC1 [METHYLCYCLOPENTANE]
- Kp ([1]; blood): 8.51

SMILES: N#N [NITROGEN]
- Kp ([1]; brain / blood): 1.07

SMILES: CCCCC [PENTANE]
- Kp ([1]; brain / blood): 5.75

SMILES: COc1ccc(CN(CCN(C)C)c2ccccn2)cc1 [PYRILAMINE]
- Kp ([2]; blood): 3.09

SMILES: Cc1ccccc1 [TOLUENE]
- Kp ([1]; blood): 2.34

SMILES: CC(Cl)(Cl)Cl [TRICHLOROETHANE]
- Kp ([1]; blood): 2.51

SMILES: ClC=C(Cl)Cl [TRICHLOROETHYLENE]
- Kp ([1]; blood): 2.19
